This series is described as follows: Human HepG2 cell viability assay in 384 well format. Conditions: HepG2 cells, read-out: Inhibition. Format: toxicity, cell-based. Also on record: dose 125 nL, time 70.5 hour; concentration not given beside the values.

Turning to `Cc1nsc(NC(=O)NC2CCCN(C)C2)n1` (centres undefined), the cytotoxicity at 70.5 h is 29.6%.

With `N#Cc1ccnc(N2CCC(NCCN3CCOCC3)CC2)c1`, the cytotoxicity at 70.5 h is -2.14%.

As to `O=C(NCCN1CCCC1)Nc1cc(C(=O)N2CCOCC2)ccc1Cl`, the cytotoxicity at 70.5 h was -8.22%.

For the compound `COc1cc(C2CC(=O)NCc3nc4sccn4c32)cc(OC)c1O` (centres undefined), the cytotoxicity at 70.5 h was -13.6%.

Take `COc1cccc(CC2CN(C(=O)c3ccnn3C)CCO2)c1` (centres undefined): the cytotoxicity at 70.5 h is -4.96%.

With `O=c1n(Cc2ncccn2)nc(C2CCNCC2)n1-c1ccccc1`, the cytotoxicity at 70.5 h is -2.01%.

In the case of `O=C(NC1CC1)c1ccnc(-c2cc(NCCO)nc3[nH]ccc23)c1`, the cytotoxicity at 70.5 h was found to be 21.9%.

`OC1CN(Cc2cccc(N3CCOCC3)c2)Cc2ccccc21` (centres undefined): the cytotoxicity at 70.5 h is -0.922%.

As to `CC(C)NCC1(O)CCCN(CCC2CCCCC2)C1=O` (centres undefined), the cytotoxicity at 70.5 h is -7.37%.

Consider `CCOCCN1CCN([C@@H]2c3ccccc3C3(CCNCC3)[C@H]2O)CC1`, for which the cytotoxicity at 70.5 h came out at 28.9%.

In the case of `O=C1OCCN1C1CCN(Cc2cc3n(n2)CCCNC3)CC1`, the cytotoxicity at 70.5 h stood at 17.1%.

As to `COc1ccc(C)cc1-n1cnnc1CC1CCNCC1`, the cytotoxicity at 70.5 h was -3.84%.

For the compound `COCCNc1cc(-c2ccccc2C(=O)O)c2cc[nH]c2n1`, the cytotoxicity at 70.5 h is -10.4%.

Take `Cc1cc(CN2CCC(CNC(=O)c3ccc4[nH]cnc4c3)C2)[nH]n1` (centres undefined): the cytotoxicity at 70.5 h was -6.71%.

Regarding `COC(=O)[C@H]1C[C@@H](O)CCN1S(=O)(=O)c1cc(C)c(Cl)cc1C`, the cytotoxicity at 70.5 h amounted to 0.229%.

Regarding `O=C(O)[C@@H]1CN(C2CCOCC2)C[C@H]1C1CC1`, the cytotoxicity at 70.5 h is -7.25%.

As for `CSCCC1c2nc[nH]c2CCN1Cc1ccccc1C(F)(F)F` (centres undefined), the cytotoxicity at 70.5 h was determined as 0.321%.

Regarding `CN(CC(C)(C)C)c1ccc(C(=O)NCCCc2ccccn2)cn1`, the cytotoxicity at 70.5 h was -8.74%.

On to `Nc1nc2c(c(NCc3cnc4c(c3)CCC4)n1)CCNC2`, for which the cytotoxicity at 70.5 h is -10.4%.

As to `CN1CCCC(c2nc3c([nH]2)CC(C)(C)CNC3=O)C1` (centres undefined), the cytotoxicity at 70.5 h worked out at 13.5%.

In the case of `CNc1ccnc(N2C[C@@H](C)[C@](O)(C3CCC3)C2)n1`, the cytotoxicity at 70.5 h was found to be 26%.

As for `Cc1cc(-c2cc(C3CCOC3)c(C#N)c(N)n2)ccc1Cl` (centres undefined), the cytotoxicity at 70.5 h was -10.8%.

As for `Cc1nnnn1CCC(=O)N1CCC2(CCC(=O)N(CC3CC3)C2)CC1`, the cytotoxicity at 70.5 h is -8.64%.

Consider `CCc1oc(C(=O)NC(C)c2ncn[nH]2)cc1CN1CCCC1` (centres undefined), for which the cytotoxicity at 70.5 h was -10.5%.

Take `COc1ccc(F)c(CN2CCCC(O)(CNC3CCCCC3)C2=O)c1` (centres undefined): the cytotoxicity at 70.5 h is -2.81%.

As to `Cn1cnnc1CCC(=O)N1CCCC(OCc2cccnc2)C1` (centres undefined), the cytotoxicity at 70.5 h was -0.989%.

As for `CC(C)OCCCNC(=O)C1CCC(=O)N(C2CCCC2)C1` (centres undefined), the cytotoxicity at 70.5 h worked out at 17.3%.

As to `O=C1OCCN1CCNC(=O)C1(N2CCCCC2)Cc2ccccc2C1`, the cytotoxicity at 70.5 h is -7.56%.

Consider `CCc1cc(N(C)CCC(O)c2ccccc2)n2nccc2n1` (centres undefined), for which the cytotoxicity at 70.5 h turned out to be 30.6%.

On to `CCCn1ncc(C(=O)N(Cc2cccnc2)C[C@@H]2CCC(=O)N2)c1C`, for which the cytotoxicity at 70.5 h was -5.8%.

Turning to `CC(C)Cc1cc(C(=O)NC(C)(C)CN2CCCCCC2)on1`, the cytotoxicity at 70.5 h is -4.52%.

In the case of `COc1cccc2c1OCC(C(=O)N1CCN(C3CCSCC3)CC1)C2` (centres undefined), the cytotoxicity at 70.5 h was -7.23%.

`CC(=O)c1ccc(CN2CCCC23CCN(c2ccccn2)CC3)cc1`: the cytotoxicity at 70.5 h was -25.1%.

For the compound `CC(C)(O)CCc1ccc(C(=O)NCC2CCCOC2)cc1` (centres undefined), the cytotoxicity at 70.5 h is -2.37%.

Turning to `CN1CCN(c2cnn(Cc3ccc(S(C)(=O)=O)cc3)c(=O)c2)CC1`, the cytotoxicity at 70.5 h is -2.57%.

For `CCn1cc(CN2CCCC(COc3ccccc3F)C2)cn1` (centres undefined), the cytotoxicity at 70.5 h was 10.5%.

For `O=C(N[C@H]1COC[C@@H]1N1CCCC1)c1c[nH]nc1C1CCCCC1`, the cytotoxicity at 70.5 h was -4.22%.

With `COc1ccc(F)cc1CN1CCC(O)(CN2CCCCC2)C1` (centres undefined), the cytotoxicity at 70.5 h is -6.56%.

With `CCOc1ccc(C(=O)CCC(=O)N(C)Cc2snnc2C)cc1C`, the cytotoxicity at 70.5 h is -7.49%.

In the case of `CC(C)c1nc(C(=O)N2CCCC(N)CC2)cs1` (centres undefined), the cytotoxicity at 70.5 h was determined as 25.2%.

As for `CC(c1cncs1)N(C)Cc1ccc(CCC(C)(C)O)cc1` (centres undefined), the cytotoxicity at 70.5 h is -5.33%.

On to `CCc1cc(CN(C)C(=O)CN2CC(c3ccccc3)CC2=O)on1` (centres undefined), for which the cytotoxicity at 70.5 h amounted to 3.32%.

Take `O=C(CSCC1CC1)N1CCCC(c2nccn2Cc2ccccn2)C1` (centres undefined): the cytotoxicity at 70.5 h was 0.457%.

For the compound `CCN(Cc1ccncc1)C(=O)C(C)n1ccnc1C(C)C` (centres undefined), the cytotoxicity at 70.5 h was -11.1%.

For `COCCC1(CO)CCCN(Cc2ccncc2)C1` (centres undefined), the cytotoxicity at 70.5 h was -3.98%.

Regarding `CCN(Cc1ccncc1)c1cc(C2CCCNC2)nc(C)n1` (centres undefined), the cytotoxicity at 70.5 h is -7.35%.

For `COCCN(C)C[C@@H]1CN(C(=O)NC2CCCCC2)C[C@@H]1CO`, the cytotoxicity at 70.5 h was -8.61%.

With `Cc1cc(C(=O)N2CCNC(c3ccccc3)C2)c2ccc(F)cc2n1` (centres undefined), the cytotoxicity at 70.5 h is -4.04%.

Turning to `CC(C)n1cnnc1CN(C)CC1CCOC1` (centres undefined), the cytotoxicity at 70.5 h is -11.8%.

For `O=C1OCCN1Cc1ccc(C(F)(F)F)cc1F`, the cytotoxicity at 70.5 h is -6.21%.

For the compound `CN(Cc1noc2c1CCCC2)C(=O)C1Cc2ccccc2CN1C` (centres undefined), the cytotoxicity at 70.5 h is -6.59%.

As to `Cc1ccccc1C1CCN(CCn2cc(-c3nccn3C)nn2)C1` (centres undefined), the cytotoxicity at 70.5 h is 2.36%.

As to `Cc1nc(NC(=O)N(C)Cc2ccoc2)nn1C`, the cytotoxicity at 70.5 h is -4.45%.

As to `OC1COCCN(Cc2cccc(N3CCOCC3)c2)C1` (centres undefined), the cytotoxicity at 70.5 h was -5.01%.

On to `CCOCCn1c(=O)[nH]c2cc(C(=O)N(C)Cc3cc(C)[nH]n3)ccc21`, for which the cytotoxicity at 70.5 h is -6.23%.

`OCc1ccc(CN2CCC(n3cc(C4CCCCC4)nn3)CC2)o1`: the cytotoxicity at 70.5 h was -7.14%.

For the compound `O=C1CC[C@@H](C(=O)N2CCC(Cn3cc(C4CCCCC4)nn3)CC2)N1`, the cytotoxicity at 70.5 h was -1.59%.

As for `CC(=O)NCCC1CCN(c2nc(C(C)(C)C)nc3c2cnn3C)CC1`, the cytotoxicity at 70.5 h was -1.1%.

As for `COc1ccc(F)c(F)c1C(=O)N1C[C@@H](CN(C)CCO)[C@@H](CO)C1`, the cytotoxicity at 70.5 h is 17%.

As to `OCCc1ncnn1Cc1cccc(Cl)c1`, the cytotoxicity at 70.5 h turned out to be 44.4%.

On to `O=C(NCCN1CCCC(CO)C1)c1ccc2scnc2c1` (centres undefined), for which the cytotoxicity at 70.5 h was -13.1%.

On to `O=C(CCC1CCN(C2CSCCSC2)CC1)NCC1CCCO1` (centres undefined), for which the cytotoxicity at 70.5 h was -7.42%.

On to `COc1ccccc1[C@@H]1CN(Cc2cnn(C)c2C)C[C@H]1C(=O)O`, for which the cytotoxicity at 70.5 h was found to be 7.39%.

In the case of `Cc1nc(CN(C)C)cc(N2CCCC(COc3ccc(F)cc3)C2)n1` (centres undefined), the cytotoxicity at 70.5 h is -5.18%.

For `CCC(C(=O)NC(C)(C)C)n1ccc2ncccc2c1=O` (centres undefined), the cytotoxicity at 70.5 h is -17.5%.

In the case of `COCc1nnc(C(=O)N(C)Cc2ccc(OC)cc2)o1`, the cytotoxicity at 70.5 h was -0.9%.

Turning to `Cc1cnn(CCC(=O)N2CCC3(CCC(=O)N(CC4CC4)C3)CC2)c1`, the cytotoxicity at 70.5 h is -6.95%.

Take `CN(CCCc1cnn(C)c1)Cc1cc2n(n1)CCNC2`: the cytotoxicity at 70.5 h is -4.75%.

In the case of `CC(c1cccnc1)N(C)Cc1cc2cc3c(cc2[nH]c1=O)OCO3` (centres undefined), the cytotoxicity at 70.5 h was 2.59%.

Regarding `COc1cccn(CC(=O)N2CCC3(CCNCC3)C2)c1=O`, the cytotoxicity at 70.5 h was -13.1%.

As for `Cc1cc2[nH]c(CN3CCOC(Cc4ccccc4)C3)cc(=O)n2n1` (centres undefined), the cytotoxicity at 70.5 h is 18.7%.

For `COCCCN1CC2(CCCN(CCn3cc(Cl)cn3)C2)CCC1=O` (centres undefined), the cytotoxicity at 70.5 h was -21.9%.

Turning to `Cn1ccnc1C(=O)N1CCCC1c1ccc(C(=O)N2CCOCC2)s1` (centres undefined), the cytotoxicity at 70.5 h is -2.53%.

Consider `Cc1c[nH]c(CN2CCOC(c3ccc(Cl)cc3)C2)c(C)c1=O` (centres undefined), for which the cytotoxicity at 70.5 h is -4.57%.

`CCCc1cncnc1N1CCC2(CCC(=O)N(C3CCCC3)C2)CC1`: the cytotoxicity at 70.5 h was -12.7%.

With `CN(c1ncccc1CNC(=O)c1csnn1)C1CCCCC1`, the cytotoxicity at 70.5 h amounted to 26.5%.

As for `CN(Cc1ccccc1CN1CCCC1)C(=O)c1c[nH]c(=O)[nH]1`, the cytotoxicity at 70.5 h was -10.8%.

For `CC1(C(=O)NCc2cccnc2Oc2ccc(F)cc2F)CCCNC1` (centres undefined), the cytotoxicity at 70.5 h was -18.2%.

With `Cc1c(C2CCOC(C)(C)C2)nc(N)c(C#N)c1-c1ccc(O)cc1` (centres undefined), the cytotoxicity at 70.5 h is 11.3%.

For `CNC(=O)[C@@H]1C[C@H](N)CN1S(=O)(=O)c1cc(C)c(Cl)cc1C`, the cytotoxicity at 70.5 h amounted to 1.05%.

Take `O=C(c1c[nH]nc1-c1cccc(F)c1)N1CCNC(c2ccccc2)C1` (centres undefined): the cytotoxicity at 70.5 h is -9.77%.

Consider `COc1cccc(C)c1C(=O)N1CCc2ncnc(NCCO)c2CC1`, for which the cytotoxicity at 70.5 h is -7.07%.

In the case of `COc1ccc(-c2nc3c([nH]2)CCNC3C(=O)O)c2ccccc12` (centres undefined), the cytotoxicity at 70.5 h is -7.46%.

Turning to `CN(CCCOc1ccccc1Cl)C(=O)CN1CCNC1=O`, the cytotoxicity at 70.5 h is -1.34%.

With `COc1cc(CN(C)C(C)c2ccccn2)cc2c1OCO2` (centres undefined), the cytotoxicity at 70.5 h was -13.1%.

As for `O=C(NC1CC(=O)N(C2Cc3ccccc3C2)C1)c1cnccn1` (centres undefined), the cytotoxicity at 70.5 h is -4.83%.

`CC(=O)NC1CCN(c2cc(-c3ccccc3)nc3c(C)c(C)nn23)C1` (centres undefined): the cytotoxicity at 70.5 h is -2.22%.

Turning to `CCCOC1CCCN(C(=O)c2cc(CN(CC)CC)c(CC)o2)C1` (centres undefined), the cytotoxicity at 70.5 h was 17.7%.

As to `Cc1ccc(-c2nnc(CCC(=O)NCc3cn(C)nc3C)o2)s1`, the cytotoxicity at 70.5 h is -9.67%.

Take `c1ccc2c(c1)CC(N1CCCN(Cc3cccc4nonc34)CC1)C2`: the cytotoxicity at 70.5 h was 21.6%.

As to `N#CC1(C(=O)N2C[C@H]3CC[C@@H]2CN(Cc2ccncc2)C3)CCOCC1`, the cytotoxicity at 70.5 h is -23.5%.

`N#Cc1ccc(C(=O)N2C[C@@H](CN3CCCC3)C[C@H](CO)C2)cc1`: the cytotoxicity at 70.5 h was -2.46%.

`CCOCCC(=O)N(C)Cc1noc(C(C)C)n1`: the cytotoxicity at 70.5 h was determined as 24.4%.

`CCN(CC1CCOCC1)C(=O)Cn1ccccc1=O`: the cytotoxicity at 70.5 h was -9.29%.

With `CNc1nc2c(c(C(=O)N3CCCC3)n1)CN(Cc1ccco1)CC2`, the cytotoxicity at 70.5 h is -3.76%.

As to `CNc1cc(C(=O)N2CCCCC2CCn2ccnc2C)ccn1` (centres undefined), the cytotoxicity at 70.5 h is -2.8%.

In the case of `O=C1CCCN1CCCC(=O)N1CCC2(CC1)[C@H](O)C[C@@H]2O`, the cytotoxicity at 70.5 h was -0.254%.

In the case of `O=C1CC(C(=O)O)C2(CCN(C(=O)NCc3ccc(Cl)cc3)CC2)N1` (centres undefined), the cytotoxicity at 70.5 h was -2.42%.

For the compound `CO[C@H]1C[C@@H](O)C12CCN(C(=O)CCCOc1ccccc1)CC2`, the cytotoxicity at 70.5 h was -8.27%.

For the origin of these results see ChEMBL document CHEMBL3507680, “University of Dundee, Gates Library screen for HepG2 cell viability”.
